Experimental data published in PMC10914731, “Homo-BacPROTAC-induced degradation of ClpC1 as a strategy against drug-resistant mycobacteria” (Nature Communications, 2024).
≈ marks a conversion by molar mass, not a printed value. Where “and” joins values, the source holds several entries; their conditions need not be identical. Identical values can stand only once. Like-named read-outs stand apart in the source and are kept apart here.

Legend:
[1] = target: ClpC1-NTD substrate, M. tuberculosis ClpC1P1P2 (Mycobacterium tuberculosis, UniProt P9WPC9); assay: biochemical; assay type: biochemical; conditions: Mtb
[2] = target: ClpC1 NTD protein (M. tuberculosis) (Mycobacterium tuberculosis, UniProt P9WPC9); assay: biochemical; assay type: binding
[3] = assay type: in vitro ADME, Mice
Summary of the method: (§1)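 Compound at 1 µmol/l incubated with 0.5 mg/ml liver microsomes in 100 mM Tris-HCl pH 7.5, 6.5 mM MgCl2, 1 mM NADPH, 37 °C; acetonitrile-quenched at multiple time points, measured by HPLC-MS/MS. First-order half-lives converted to clearance as %Qh via well-stirred liver model.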

Msm 700084 = assay: microbe, parasite or virus in culture; assay type: cell-based; conditions: Mycolicibacterium smegmatis, 700084; read-out: MIC Msm 700084
Msm 607 = assay: microbe, parasite or virus in culture; assay type: cell-based
[4] = assay type: in vitro ADME, Rat
Summary of the method: as §1

[5] = test system: M. tuberculosis H37Rv (ATCC 27294); assay: microbe, parasite or virus in culture; assay type: cell-based
[6] = test system: non-replicating cells of Mtb H37Rv; assay type: cell-based, Mycobacterium tuberculosis; conditions: three replicate columns
[7] = test system: Mycobacterium intracellulare; assay: microbe, parasite or virus in culture; assay type: cell-based
Mycobacterium fortuitum = assay: microbe, parasite or virus in culture; assay type: cell-based
[8] = Experiment 2, three replicate columns

SMILES: CO[C@H](c1ccccc1)[C@@H]1NC(=O)[C@H](C)NC(=O)[C@H](C[C@@H](C)CO)N(C)C(=O)[C@H](Cc2cn(Cc3cn(CCOCCn4cc(Cn5cc(C[C@@H]6NC(=O)[C@H](C(C)C)NC(=O)[C@H](CC(C)C)N(C)C(=O)[C@H](C(C)C)NC(=O)[C@H]([C@H](OC)c7ccccc7)NC(=O)[C@H](C)NC(=O)[C@H](C[C@@H](C)CO)N(C)C6=O)c6ccccc65)nn4)nn3)c3ccccc23)NC(=O)[C@H](C(C)C)NC(=O)[C@H](CC(C)C)N(C)C(=O)[C@H](C(C)C)NC1=O [Compound 6]
- 1-Dmax, single measurements ([1]; Measurement 1-4): 67.3% and 57.3% and 45.9% and 46.4%
- 1-Dmax (percent substrate remaining at maximal degradation) ([1]; mean of the measurements, read-out: 1-Dmax, Mean): 54%
- DC50 ([1]; mean of the measurements, read-out: DC50, Mean): 5.8 µM
- koff ([2]; SPR dissociation rate constant, read-out: koff ClpC1-NTD Mean ± SD): 0.001 s⁻¹
- Kd ([2]; SPR, individual measurements (source data), read-out: KD ClpC1-NTD): 1.36 nM and 1.13 nM and 0.535 nM and 0.649 nM
- koff ClpC1-NTD ([2]; SPR, single independent measurements): 0.001 s⁻¹
- Kd ([2]; SPR, read-out: ClpC1-NTD KD Mean ± SD): 0.9 ± 0.4 nM
- Microsomal Stability Mouse QH ([3]; Mouse): 42.900%
- Microsomal Stability Mice ([3]; clearance in microsomes): 43 %Qh
- MIC (Msm 700084): 20.8 ± 15.1 µM (≈ 42.4 µg/mL)
- MIC (Msm 607; Mycolicibacterium smegmatis, 607, read-out: MIC Msm 607): 2.3 ± 0.9 µM (≈ 4.69 µg/mL)
- Microsomal Stability Rat QH ([4]; Rat): <23.100%
- Microsomal Stability Rat ([4]; clearance in microsomes): < 23 %Qh
- MIC ([5]; Mycobacterium tuberculosis, M. tuberculosis H37Rv strain, read-out: MIC Mtb H37Rv Mean ± SD): 0.4 ± 0.3 µM (≈ 0.815 µg/mL)
- MIC ([5]; Mycobacterium tuberculosis, Mtb H37Rv (Supplementary Table 2), read-out: MIC Mtb): 0.4 ± 0.3 µM (≈ 0.815 µg/mL)
- MIC ([5]; individual measurements (source data), read-out: Mtb MIC): 0.390 µM and 0.780 µM and 0.097 µM and 0.195 µM

SMILES: COc1c(N2C[C@@H]3CCCN[C@@H]3C2)c(F)cc2c(=O)c(C(=O)O)cn(C3CC3)c12 [Moxifloxacin, reference compound]
- Supplementary Figure 2 dose-response value, starvation-induced non-replicating H37Rv cells ([6]; Conc. 0.0488281 µM): 96.0307 and 94.5408 and 97.6321
- Supplementary Figure 2 dose-response value, starvation-induced non-replicating H37Rv cells ([6]; Conc. 0.0976562 µM): 87.2508 and 88.414 and 86.3824
- Supplementary Figure 2 dose-response value, starvation-induced non-replicating H37Rv cells ([6]; Conc. 0.195312 µM): 85.0837 and 87.4102 and 85.2989
- Supplementary Figure 2 dose-response value, starvation-induced non-replicating H37Rv cells ([6]; Conc. 0.390625 µM): 85.4263 and 85.2112 and 85.8964
- Supplementary Figure 2 dose-response value, starvation-induced non-replicating H37Rv cells ([6]; Conc. 0.78125 µM): 82.9485 and 82.598 and 80.152
- Supplementary Figure 2 dose-response value, starvation-induced non-replicating H37Rv cells ([6]; Conc. 1.5625 µM): 77.7618 and 79.2358 and 77.6503
- Supplementary Figure 2 dose-response value, starvation-induced non-replicating H37Rv cells ([6]; Conc. 3.125 µM): 77.3794 and 79.3075 and 79.2756
- Supplementary Figure 2 dose-response value, starvation-induced non-replicating H37Rv cells ([6]; Conc. 6.25 µM): 72.6389 and 74.9414 and 71.1889
- Supplementary Figure 2 dose-response value, starvation-induced non-replicating H37Rv cells ([6]; Conc. 25 µM): 59.9471 and 62.2337 and 59.4213
- Supplementary Figure 2 dose-response value, starvation-induced non-replicating H37Rv cells ([6]; Conc. 50 µM): 60.21 and 62.4647 and 60.935
- Supplementary Figure 2 dose-response value, starvation-induced non-replicating H37Rv cells ([6]; Conc. 100 µM): 55.7882 and 57.6844 and 55.7723
- MIC (µg/ml) Mycobacterium intracellulare [7, 8]: 0.50 µg/mL (≈ 1.25 µM)
- MIC ([7]; Experiment 2, three replicate columns, read-out: MIC (µM) Mycobacterium intracellulare): 1.25 µM
- MIC ([7]; Mycobacterium intracellulare, Experiment 1, read-out: MIC Mycobacterium intracellulare): 1.25 µM and 0.5 µg/mL
- MIC ([7]; Mycobacterium intracellulare, Experiment 2, three replicate columns, read-out: MIC (µM) Mycobacterium intracellulare): 1.25 µM
- MIC ([7]; Mycobacterium intracellulare, Experiment 2, three replicate columns, read-out: MIC (µg/ml) Mycobacterium intracellulare): 0.5 µg/mL
- MIC ([7]; Mycobacterium intracellulare, mean ± SD, read-out: MIC Mycobacterium intracellulare): 1.2 µM
- MIC (µg/ml) Mycobacterium fortuitum (Mycobacterium fortuitum; [8]): 0.06 µg/mL (≈ 0.149 µM)
- MIC (Mycobacterium fortuitum; Experiment 2, three replicate columns, read-out: MIC (µM) Mycobacterium fortuitum): 0.15 µM
- MIC (Mycobacterium fortuitum; Mycolicibacterium fortuitum, Experiment 1, read-out: MIC Mycobacterium fortuitum): 0.0747 µM and 0.03 µg/mL
- MIC (Mycobacterium fortuitum; Mycolicibacterium fortuitum, Experiment 2, three replicate columns, read-out: MIC (µM) Mycobacterium fortuitum): 0.15 µM
- MIC (Mycobacterium fortuitum; Mycolicibacterium fortuitum, Experiment 2, three replicate columns, read-out: MIC (µg/ml) Mycobacterium fortuitum): 0.06 µg/mL
- MIC (Mycobacterium fortuitum; Mycolicibacterium fortuitum, mean ± SD, read-out: MIC Mycobacterium fortuitum): 0.1 µM
- MIC (Msm 607; Mycolicibacterium smegmatis, 607, read-out: MIC Msm #607, individual example (Supplementary Table 11)): 0.1 µM and 0.1 µg/mL
- MIC (Msm 607; Mycolicibacterium smegmatis, ATCC607, Set-3, done at a different day than Set 1 and Set 2, read-out: MIC (Msm ATCC607) Set-3): 0.15 µM and 0.06 µg/mL
- MIC (Msm 607; Mycolicibacterium smegmatis, ATCC607, mean of 3 experiments ± SD, read-out: MIC including standard deviations (Msm ATCC607)): 0.015 µM and 0.06 µg/mL
- MIC (Msm 607; Mycolicibacterium smegmatis, ATCC607, read-out: MIC (Msm ATCC607) Set-1): 0.15 µM and 0.06 µg/mL
- MIC (Msm 607; Mycolicibacterium smegmatis, ATCC607, read-out: MIC (Msm ATCC607) Set-2): 0.15 µM and 0.06 µg/mL
- MIC ([5]; M. tuberculosis H37Rv 27294, single well replicates, read-out: MIC): 0.16 µM (≈ 0.0642 µg/mL)
- MIC ([5]; Mycobacterium tuberculosis, M. tuberculosis H37Rv 27294, single well replicates, read-out: MIC): 0.16 µM (≈ 0.0642 µg/mL)
- MIC ([5]; Mycobacterium tuberculosis, Mtb H37Rv, mean ± SD, n = 3 well replicates, read-out: MIC): 0.2 µM (≈ 0.0803 µg/mL)
- MIC ([5]; Mycobacterium tuberculosis, Set 1, read-out: MIC (Mtb H37Rv) Set 1): 0.07 µM and 0.03 µg/mL
- MIC ([5]; Mycobacterium tuberculosis, Set 2, read-out: MIC (Mtb H37Rv) Set 2): 0.15 µM and 0.06 µg/mL
- MIC ([5]; Mycobacterium tuberculosis, Set 3, done at a different day than Set 1 and Set 2, read-out: MIC (Mtb H37Rv) Set 3): 0.07 µM and 0.03 µg/mL
- MIC ([5]; Mycobacterium tuberculosis, individual example (Supplementary Table 11), read-out: MIC Mtb H37Rv): 0.1 µM and 0.03 µg/mL
- MIC ([5]; Mycobacterium tuberculosis, mean of 3 experiments +/- SD, unit taken from the sets above in the same table, read-out: MIC data (Mtb H37Rv) (+/- SD)): 0.1 µM and 0.04 µg/mL
